Experimental data: the supplement of paper PMC10307832

Legend:
Assay in all cases: relative viability (nuclei count vs DMSO), 5 days (fraction); higher = more cells survive
Entinostat + Bortezomib = compound: Nc1ccccc1NC(=O)c1ccc(CNC(=O)OCc2cccnc2)cc1 [Entinostat] + CC(C)C[C@H](NC(=O)[C@H](Cc1ccccc1)NC(=O)c1cnccn1)B(O)O [Bortezomib] (partner 0.002 µM)
Method in brief: (§1)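 Dosing by pin tool came one day after lung cancer cell lines were seeded in 1536-well plates, using either one drug or a fixed anchor-drug dose plus five library-drug doses (not always all listed) in √10 steps. After 5 days, nuclei were counted on 4× images. Relative viability is treated-well nuclei count divided by vehicle-well nuclei count, and values are medians of duplicate plates.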

[1] = compound: C1COCCN1C2=NC(=NC3=C2OC4=C3C=CC=N4)C5=CC(=CC=C5)NC(=O)C6=CN=C(C=C6)N + COc1cccc2cc(-c3nc([C@H]4CC[C@H](C(=O)O)CC4)n4ncnc(N)c34)[nH]c12 [OSI-027] (partner 0.5 µM)
Method in brief: as §1

[2] = compound: C1COCCN1C2=NC(=NC3=C2OC4=C3C=CC=N4)C5=CC(=CC=C5)NC(=O)C6=CN=C(C=C6)N + N=C(N)NC(=N)NCCc1ccccc1 [Phenformin] (partner 250 µM)
Method in brief: as §1

SGI-1776 + Bortezomib = compound: CN1CCC(CNc2ccc3ncc(-c4cccc(OC(F)(F)F)c4)n3n2)CC1 [SGI-1776] + CC(C)C[C@H](NC(=O)[C@H](Cc1ccccc1)NC(=O)c1cnccn1)B(O)O [Bortezomib] (partner 0.002 µM)
Method in brief: as §1

| Cell Line | relative viability (Entinostat + Bortezomib; first compound 0.02 µM) | relative viability (Entinostat + Bortezomib; first compound 0.06325 µM) | relative viability (Entinostat + Bortezomib; first compound 0.2 µM) | relative viability (Entinostat + Bortezomib; first compound 0.6325 µM) | relative viability (Entinostat + Bortezomib; first compound 2 µM) | relative viability ([1]; first compound 0.02 µM) | relative viability ([1]; first compound 0.06325 µM) | relative viability ([1]; first compound 0.2 µM) | relative viability ([1]; first compound 0.6325 µM) | relative viability ([1]; first compound 2 µM) | relative viability ([2]; first compound 0.02 µM) | relative viability ([2]; first compound 0.06325 µM) | relative viability ([2]; first compound 0.2 µM) | relative viability ([2]; first compound 0.6325 µM) | relative viability ([2]; first compound 2 µM) | relative viability (SGI-1776 + Bortezomib; first compound 0.08 µM) | relative viability (SGI-1776 + Bortezomib; first compound 0.8 µM) | relative viability (SGI-1776 + Bortezomib; first compound 2.53 µM) | relative viability (SGI-1776 + Bortezomib; first compound 8 µM) |
| --- | --- | --- | --- | --- | --- | --- | --- | --- | --- | --- | --- | --- | --- | --- | --- | --- | --- | --- | --- |
| HCC-366 | 1.08 | 1.15 | 0.831 | 0.41 | 0.0738 | 0.82 | 1.04 | 0.68 | 0.537 | 0.352 | 0.63 | 0.709 | 0.644 | 0.644 | 0.573 | 0.919 | 1.11 | 0.98 | 1.12 |
| HCC-827 | 0.979 | 1.02 | 0.976 | 0.979 | 0.539 | 0.769 | 0.851 | 0.72 | 0.684 | 0.487 | 0.384 | 0.43 | 0.419 | 0.416 | 0.386 | 1.11 | 0.984 | 1.05 | 1.04 |
| HOP-62 | 0.804 | 0.591 | 0.763 | 0.398 | 0.17 | 0.947 | 0.938 | 0.713 | 0.748 | 0.481 | 0.762 | 0.874 | 0.686 | 0.546 | 0.294 | 0.862 | 0.914 | 0.74 | 0.632 |
| IA-LM | 0.814 | 0.842 | 1.03 | 0.597 | 0.447 | – | – | – | – | – | – | – | – | – | – | 0.844 | 0.736 | 0.918 | 0.877 |
| LC-2-ad | 0.961 | 0.895 | 0.818 | 0.591 | 0.197 | 0.834 | 0.981 | 0.747 | 0.72 | 0.625 | 0.551 | 0.598 | 0.456 | 0.493 | 0.49 | 1.06 | 0.976 | 1.03 | 0.987 |
| LCLC-97TM1 | 0.69 | 0.912 | 0.912 | 0.355 | 0.128 | 0.525 | 0.519 | 0.485 | 0.507 | 0.353 | 0.446 | 0.475 | 0.409 | 0.452 | 0.419 | 0.775 | 0.557 | 0.549 | 0.567 |
| LCLC-103H | 1.05 | 1.04 | 1.11 | 0.868 | 0.498 | 0.409 | 0.419 | 0.446 | 0.452 | 0.335 | 0.328 | 0.34 | 0.33 | 0.343 | 0.252 | 1.06 | 1.05 | 1.01 | 0.859 |
| LK-2 | – | – | – | – | – | 0.196 | 0.178 | 0.165 | 0.216 | 0.196 | 0.538 | 0.551 | 0.249 | 0.2 | 0.252 | – | – | – | – |
| LOU-NH91 | 0.496 | 0.52 | 0.534 | 0.545 | 0.512 | 0.699 | 0.686 | 0.739 | 0.68 | 0.657 | 0.709 | 0.723 | 0.724 | 0.721 | 0.652 | 0.482 | 0.565 | 0.489 | 0.458 |
| LU99A | 1.02 | 1.26 | 1 | 0.801 | 0.784 | 0.308 | 0.288 | 0.241 | 0.274 | 0.267 | 0.845 | 0.876 | 0.78 | 0.371 | 0.255 | 1.3 | 1.15 | 1.53 | 1.03 |
| LXF-289 | 1.01 | 0.986 | 0.96 | 0.725 | 0.646 | 0.814 | 0.884 | 0.768 | 0.748 | 0.351 | 0.523 | 0.536 | 0.541 | 0.49 | 0.383 | 1.03 | 1.04 | 1.02 | 0.973 |
| NCI-H358 | – | – | – | – | – | – | 0.832 | 0.702 | 0.601 | 0.443 | – | 0.36 | 0.269 | 0.248 | 0.169 | – | – | – | – |
| NCI-H522 | – | – | – | – | – | 0.75 | 0.732 | 0.714 | 0.687 | 0.721 | 0.638 | 0.701 | 0.63 | 1.49 | 0.599 | – | – | – | – |
| NCI-H1299 | 1.04 | 0.985 | 0.934 | 0.858 | 0.732 | – | – | – | – | – | – | – | – | – | – | 1.02 | 1.04 | 1.02 | 1.04 |
| NCI-H1395 | – | – | – | – | – | 0.562 | 0.49 | 0.523 | 0.604 | 0.519 | 0.396 | 0.451 | 0.461 | 0.415 | 0.384 | – | – | – | – |
| NCI-H1623 | – | – | – | – | – | 0.459 | 0.434 | 0.447 | 0.414 | 0.405 | 0.634 | 0.587 | 0.6 | 0.562 | 0.407 | – | – | – | – |
| NCI-H1648 | – | – | – | – | – | 0.285 | 0.229 | 0.264 | – | 0.279 | – | – | – | – | – | – | – | – | – |
| NCI-H1703 | 0.314 | 0.383 | 0.308 | 0.265 | 0.149 | – | – | – | – | – | – | – | – | – | – | 0.328 | 0.407 | 0.272 | 0.131 |
| NCI-H1793 | – | – | – | – | – | 0.253 | 0.301 | 0.251 | 0.177 | 0.233 | 0.393 | 0.483 | 0.404 | 0.372 | 0.277 | – | – | – | – |
| NCI-H1944 | – | – | – | – | – | 0.401 | 0.439 | 0.366 | 0.345 | 0.272 | 0.217 | 0.244 | 0.182 | 0.194 | 0.142 | – | – | – | – |
| NCI-H2170 | – | – | – | – | – | 0.796 | 0.76 | 0.651 | 0.786 | 0.596 | 0.427 | 0.439 | 0.408 | 0.407 | 0.388 | – | – | – | – |
| NCI-H2342 | – | – | – | – | – | 0.666 | 0.603 | 0.661 | 0.615 | 0.649 | 0.651 | 0.564 | 0.565 | 0.695 | 0.576 | – | – | – | – |
| SK-MES-1 | – | – | – | – | – | 0.572 | 0.664 | 0.589 | 0.426 | 0.337 | 0.663 | 0.766 | 0.729 | 0.618 | 0.462 | – | – | – | – |
| SW 900 | – | – | – | – | – | 0.759 | 0.492 | 0.43 | 0.467 | 0.357 | 0.425 | 0.674 | 0.557 | 0.376 | 0.345 | – | – | – | – |
